Experiments:
[1] = tested on: Akt phosphorylation (Akt 인산화); assay: Akt phosphorylation (western blotting) in palmitic acid-induced insulin-resistant C2C12 myotubes (Example 2); type: cell-based, mouse; settings: single agent; general statement
[2] = tested on: C2C12 myoblast cell line (C2C12 myoblast 세포주); assay: in vitro
[3] = Cell activity (cytotoxicity) by Cell Count Kit-8 (CCK8), amodiaquine and artesunate; settings: mouse, c2c12 myoblast cells
[4] = tested on: C2C12 myotube cell line (C2C12 myotube 세포주); assay: Glucose uptake (2-NBDG, Glucose uptake cell-based assay kit) in palmitic acid-induced insulin-resistant C2C12 myotubes (Example 3); set-up: species or system mouse; settings: single agent; general statement

Row | SMILES | improvement of insulin resistance (in words) [1] | cytotoxicity (in words) [2] | viability at 25 µM [3] [%] | promotion of glucose uptake (in words) [4] | viability at 12.5 µM [3] [%]
1 | CCN(CC)Cc1cc(Nc2ccnc3cc(Cl)ccc23)ccc1O [아모디아퀸, 아모디아퀸(amodiaquine)] | 미미한 수준에 불과하다 | 세포 독성이 없음 | ~80 | 미미한 수준에 불과하다 | –
2 | C[C@H]1[C@H](OC(=O)CCC(=O)O)O[C@@H]2O[C@@]3(C)CC[C@H]4[C@H](C)CC[C@@H]1[C@@]24OO3 [아르테수네이트, 아르테수네이트(artesunate)] | – | 세포 독성이 없음 | – | – | ~80

Reference: patent KR20220022782A, “아모디아퀸 및 아르테수네이트계 약물을 유효성분으로 함유하는 제2형 당뇨병 예방 또는 치료용 약학적 조성물” (priority 2020, dated 2022)
